# In ChEMBL document CHEMBL3414527, “Engineering potent and selective analogues of GpTx-1, a tarantula venom peptide antagonist of the Na(V)1.7 sodium channel” (J Med Chem, 2015):
# Bridge positions count the residues as written; N and C are the ends. Peptide text beside a SMILES is read from it.
# How the values were obtained:
# [1] = biological target: Sodium channel protein type 9 subunit alpha (Homo sapiens, UniProt Q15858); experiment: Inhibition of human NaV1.7 at -140 mV holding potential by whole-cell patch clamp assay
# [2] = biological target: Sodium channel protein type 5 subunit alpha (Homo sapiens, UniProt Q14524); experiment: Inhibition of human NaV1.5 at -140 mV holding potential by whole-cell patch clamp assay
# Chain of Sodium channel protein type 5 subunit alpha (Q14524 whole entry): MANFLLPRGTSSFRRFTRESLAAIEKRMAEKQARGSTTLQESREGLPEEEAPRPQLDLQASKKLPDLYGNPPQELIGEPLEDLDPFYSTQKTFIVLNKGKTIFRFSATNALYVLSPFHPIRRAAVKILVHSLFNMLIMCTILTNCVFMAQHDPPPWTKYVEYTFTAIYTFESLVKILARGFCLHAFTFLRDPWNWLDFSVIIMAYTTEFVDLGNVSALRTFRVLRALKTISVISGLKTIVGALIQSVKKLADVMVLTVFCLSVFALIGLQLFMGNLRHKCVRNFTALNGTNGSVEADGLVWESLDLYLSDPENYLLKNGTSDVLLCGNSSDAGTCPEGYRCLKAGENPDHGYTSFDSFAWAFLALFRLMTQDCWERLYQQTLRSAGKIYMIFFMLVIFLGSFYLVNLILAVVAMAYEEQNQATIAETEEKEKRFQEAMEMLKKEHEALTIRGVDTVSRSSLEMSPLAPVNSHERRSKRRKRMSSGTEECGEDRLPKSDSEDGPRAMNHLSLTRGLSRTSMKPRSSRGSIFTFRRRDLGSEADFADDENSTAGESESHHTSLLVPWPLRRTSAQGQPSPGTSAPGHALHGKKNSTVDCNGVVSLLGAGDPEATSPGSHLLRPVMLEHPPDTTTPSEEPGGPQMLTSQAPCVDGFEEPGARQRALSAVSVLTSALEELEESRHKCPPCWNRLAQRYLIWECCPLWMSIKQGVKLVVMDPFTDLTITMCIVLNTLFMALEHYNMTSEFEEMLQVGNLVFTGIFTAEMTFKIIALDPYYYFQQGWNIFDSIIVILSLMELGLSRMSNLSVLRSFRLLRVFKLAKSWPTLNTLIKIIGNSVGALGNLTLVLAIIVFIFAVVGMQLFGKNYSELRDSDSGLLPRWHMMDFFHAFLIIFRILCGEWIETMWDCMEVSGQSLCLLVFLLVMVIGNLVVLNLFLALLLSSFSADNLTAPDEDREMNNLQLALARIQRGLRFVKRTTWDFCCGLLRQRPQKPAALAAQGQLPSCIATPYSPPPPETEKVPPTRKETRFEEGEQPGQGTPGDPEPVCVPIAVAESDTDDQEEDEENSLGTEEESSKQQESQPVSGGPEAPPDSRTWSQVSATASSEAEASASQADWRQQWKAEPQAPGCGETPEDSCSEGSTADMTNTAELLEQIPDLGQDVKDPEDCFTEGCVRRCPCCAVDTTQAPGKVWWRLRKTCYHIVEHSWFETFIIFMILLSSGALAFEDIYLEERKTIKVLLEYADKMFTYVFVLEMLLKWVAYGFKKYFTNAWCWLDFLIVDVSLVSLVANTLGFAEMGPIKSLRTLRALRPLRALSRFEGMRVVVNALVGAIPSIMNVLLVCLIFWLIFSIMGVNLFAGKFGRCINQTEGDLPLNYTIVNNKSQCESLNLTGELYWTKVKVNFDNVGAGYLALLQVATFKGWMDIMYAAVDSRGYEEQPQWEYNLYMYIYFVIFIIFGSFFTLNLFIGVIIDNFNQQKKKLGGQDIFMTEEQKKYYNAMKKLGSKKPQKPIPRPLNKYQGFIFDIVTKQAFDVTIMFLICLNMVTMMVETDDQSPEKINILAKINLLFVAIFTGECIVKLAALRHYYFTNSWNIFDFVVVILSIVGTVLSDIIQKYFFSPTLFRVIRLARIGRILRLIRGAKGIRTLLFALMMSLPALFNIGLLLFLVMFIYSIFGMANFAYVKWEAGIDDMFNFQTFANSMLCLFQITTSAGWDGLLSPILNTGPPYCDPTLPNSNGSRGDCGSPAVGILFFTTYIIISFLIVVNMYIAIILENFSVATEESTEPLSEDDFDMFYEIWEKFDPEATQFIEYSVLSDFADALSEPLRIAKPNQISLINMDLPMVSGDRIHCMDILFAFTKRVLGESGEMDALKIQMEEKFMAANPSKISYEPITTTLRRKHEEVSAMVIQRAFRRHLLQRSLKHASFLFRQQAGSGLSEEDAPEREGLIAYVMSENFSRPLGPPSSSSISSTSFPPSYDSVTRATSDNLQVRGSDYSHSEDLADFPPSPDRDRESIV
# Chain of Sodium channel protein type 9 subunit alpha (Q15858 whole entry): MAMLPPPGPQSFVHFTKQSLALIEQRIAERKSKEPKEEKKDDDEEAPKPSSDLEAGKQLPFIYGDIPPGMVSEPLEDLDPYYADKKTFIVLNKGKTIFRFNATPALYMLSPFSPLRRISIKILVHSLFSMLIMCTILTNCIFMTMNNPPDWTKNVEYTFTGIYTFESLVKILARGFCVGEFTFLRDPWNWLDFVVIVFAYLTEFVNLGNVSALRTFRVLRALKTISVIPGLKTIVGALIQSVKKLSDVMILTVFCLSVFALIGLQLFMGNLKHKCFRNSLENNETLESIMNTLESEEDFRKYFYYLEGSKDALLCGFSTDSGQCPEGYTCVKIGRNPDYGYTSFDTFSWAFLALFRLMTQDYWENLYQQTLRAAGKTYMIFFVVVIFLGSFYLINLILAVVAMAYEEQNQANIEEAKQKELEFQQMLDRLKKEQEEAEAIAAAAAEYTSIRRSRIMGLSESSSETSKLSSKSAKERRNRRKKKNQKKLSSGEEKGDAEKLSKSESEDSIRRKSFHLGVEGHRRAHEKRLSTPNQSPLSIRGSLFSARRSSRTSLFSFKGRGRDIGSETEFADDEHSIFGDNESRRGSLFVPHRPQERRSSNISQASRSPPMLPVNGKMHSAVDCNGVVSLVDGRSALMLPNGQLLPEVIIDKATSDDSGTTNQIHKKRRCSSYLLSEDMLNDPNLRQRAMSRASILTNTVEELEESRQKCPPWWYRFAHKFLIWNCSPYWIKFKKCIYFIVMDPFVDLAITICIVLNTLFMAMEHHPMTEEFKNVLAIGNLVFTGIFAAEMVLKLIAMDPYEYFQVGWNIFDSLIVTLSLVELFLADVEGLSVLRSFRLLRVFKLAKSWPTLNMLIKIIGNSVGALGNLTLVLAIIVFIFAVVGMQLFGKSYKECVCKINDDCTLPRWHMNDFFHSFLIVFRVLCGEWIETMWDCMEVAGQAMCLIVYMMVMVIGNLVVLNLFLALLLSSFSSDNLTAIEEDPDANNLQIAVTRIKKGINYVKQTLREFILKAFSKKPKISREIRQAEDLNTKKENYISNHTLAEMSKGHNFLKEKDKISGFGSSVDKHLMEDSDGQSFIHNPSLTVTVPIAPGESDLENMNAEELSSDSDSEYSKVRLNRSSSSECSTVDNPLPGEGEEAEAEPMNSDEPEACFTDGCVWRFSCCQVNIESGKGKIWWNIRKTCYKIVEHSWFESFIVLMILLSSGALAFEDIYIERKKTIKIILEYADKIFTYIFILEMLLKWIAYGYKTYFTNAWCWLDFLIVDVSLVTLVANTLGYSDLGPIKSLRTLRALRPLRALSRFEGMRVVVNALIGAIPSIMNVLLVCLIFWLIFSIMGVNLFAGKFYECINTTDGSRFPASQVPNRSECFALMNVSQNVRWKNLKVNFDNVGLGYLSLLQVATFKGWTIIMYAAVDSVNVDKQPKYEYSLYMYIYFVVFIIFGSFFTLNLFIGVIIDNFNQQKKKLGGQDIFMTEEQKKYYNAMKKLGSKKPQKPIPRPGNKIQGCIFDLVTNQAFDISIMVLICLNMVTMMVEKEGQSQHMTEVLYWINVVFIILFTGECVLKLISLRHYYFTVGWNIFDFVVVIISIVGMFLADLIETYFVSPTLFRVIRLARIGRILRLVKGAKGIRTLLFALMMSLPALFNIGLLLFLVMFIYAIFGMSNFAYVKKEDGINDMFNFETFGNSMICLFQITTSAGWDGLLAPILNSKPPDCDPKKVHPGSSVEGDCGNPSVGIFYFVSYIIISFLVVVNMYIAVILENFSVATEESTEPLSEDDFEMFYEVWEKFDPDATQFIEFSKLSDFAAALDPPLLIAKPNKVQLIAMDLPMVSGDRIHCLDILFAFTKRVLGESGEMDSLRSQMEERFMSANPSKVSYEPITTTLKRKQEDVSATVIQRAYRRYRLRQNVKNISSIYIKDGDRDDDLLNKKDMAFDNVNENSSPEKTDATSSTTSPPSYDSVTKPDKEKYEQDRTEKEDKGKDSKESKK
Structure (SMILES),IC50 [1] [nM],IC50 [2] [nM]
"CC[C@H](C)[C@@H]1NC(=O)[C@@H]2CSSC[C@@H]3NC(=O)[C@H](C(C)C)NC(=O)[C@H](CC(C)C)NC(=O)[C@H](CC(N)=O)NC(=O)[C@@H]4CCCN4C(=O)[C@H](CCCNC(=N)N)NC(=O)[C@H](CSSC[C@H](NC(=O)[C@@H](N)CC(=O)O)C(=O)N[C@@H](CC(C)C)C(=O)NCC(=O)N[C@@H](Cc4ccccc4)C(=O)N[C@@H](Cc4c[nH]c5ccccc45)C(=O)N[C@@H](CCCNC(=N)N)C(=O)N[C@@H](CCCCN)C(=O)N2)NC(=O)[C@H](CSSC[C@@H](C(=O)N[C@@H](CCCCN)C(=O)N[C@@H](Cc2ccc(O)cc2)C(=O)N[C@H](C(=O)N[C@@H](Cc2ccccc2)C(N)=O)C(C)C)NC(=O)[C@H](Cc2c[nH]c4ccccc24)NC(=O)[C@H](CCCCN)NC(=O)[C@H](Cc2cnc[nH]2)NC(=O)[C@H]([C@@H](C)O)NC(=O)[C@H](CCCNC(=N)N)NC(=O)[C@H](CO)NC3=O)NC(=O)[C@H](CCCCN)NC(=O)[C@H](CC(=O)O)NC(=O)[C@H](CC(N)=O)NC(=O)[C@H](CC(=O)O)NC(=O)[C@@H]2CCCN2C1=O (H-DCLGFWRKCIPDNDKCCRPNLVCSRTHKWCKYVF-NH2; disulfide 2-17, 9-23, 16-30)",23,3400
"CC[C@H](C)[C@@H]1NC(=O)[C@@H]2CSSC[C@@H]3NC(=O)[C@H](C(C)C)NC(=O)[C@H](CC(C)C)NC(=O)[C@H](CC(N)=O)NC(=O)[C@@H]4CCCN4C(=O)[C@H](CCCNC(=N)N)NC(=O)[C@H](CSSC[C@H](NC(=O)[C@@H](N)CC(=O)O)C(=O)N[C@@H](CC(C)C)C(=O)NCC(=O)N[C@@H](Cc4ccccc4)C(=O)N[C@@H](Cc4ccccc4)C(=O)N[C@@H](CCCNC(=N)N)C(=O)N[C@@H](CCCCN)C(=O)N2)NC(=O)[C@H](CSSC[C@@H](C(=O)N[C@@H](CCCCN)C(=O)N[C@@H](Cc2ccc(O)cc2)C(=O)N[C@H](C(=O)N[C@@H](Cc2ccccc2)C(N)=O)C(C)C)NC(=O)[C@H](Cc2c[nH]c4ccccc24)NC(=O)[C@H](CCCCN)NC(=O)[C@H](Cc2cnc[nH]2)NC(=O)[C@H]([C@@H](C)O)NC(=O)[C@H](CCCNC(=N)N)NC(=O)[C@H](CO)NC3=O)NC(=O)[C@H](CCCCN)NC(=O)[C@H](CC(=O)O)NC(=O)[C@H](CC(N)=O)NC(=O)[C@H](CC(=O)O)NC(=O)[C@@H]2CCCN2C1=O (H-DCLGFFRKCIPDNDKCCRPNLVCSRTHKWCKYVF-NH2; disulfide 2-17, 9-23, 16-30)",19,3000
"CC[C@H](C)[C@@H]1NC(=O)CNC(=O)[C@H](CC(C)C)NC(=O)[C@@H](NC(=O)[C@@H](N)CC(=O)O)CSSC[C@@H]2NC(=O)[C@@H]3CSSC[C@@H](C(=O)N[C@@H](CCCCN)C(=O)N[C@@H](Cc4ccc(O)cc4)C(=O)N[C@H](C(=O)N[C@@H](Cc4ccccc4)C(N)=O)C(C)C)NC(=O)[C@H](Cc4c[nH]c5ccccc45)NC(=O)[C@H](CCCCN)NC(=O)[C@H](Cc4cnc[nH]4)NC(=O)[C@H]([C@@H](C)O)NC(=O)[C@H](CCCNC(=N)N)NC(=O)[C@H](CO)NC(=O)[C@H](CSSC[C@H](NC(=O)[C@H](CCCCN)NC(=O)[C@H](CCCNC(=N)N)NC(=O)[C@H](CCSC)NC1=O)C(=O)N[C@@H]([C@@H](C)CC)C(=O)N1CCC[C@H]1C(=O)N[C@@H](CC(=O)O)C(=O)N[C@@H](CC(N)=O)C(=O)N[C@@H](CC(=O)O)C(=O)N[C@@H](CCCCN)C(=O)N3)NC(=O)[C@H](C(C)C)NC(=O)[C@H](CC(C)C)NC(=O)[C@H](CC(N)=O)NC(=O)[C@@H]1CCCN1C(=O)[C@H](CCCNC(=N)N)NC2=O (H-DCLGIMRKCIPDNDKCCRPNLVCSRTHKWCKYVF-NH2; disulfide 2-17, 9-23, 16-30)",9,> 10000
"CC[C@H](C)[C@@H]1NC(=O)[C@@H]2CSSC[C@@H]3NC(=O)[C@H](C(C)C)NC(=O)[C@H](CC(C)C)NC(=O)[C@H](CC(N)=O)NC(=O)[C@@H]4CCCN4C(=O)[C@H](CCCNC(=N)N)NC(=O)[C@H](CSSC[C@H](NC(=O)[C@@H](N)CC(=O)O)C(=O)N[C@@H](CC(C)C)C(=O)NCC(=O)N[C@@H](Cc4ccccc4)C(=O)N[C@@H](CCSC)C(=O)N[C@@H](CCCNC(=N)N)C(=O)N[C@@H](CCCCN)C(=O)N2)NC(=O)[C@H](CSSC[C@@H](C(=O)N[C@@H](CCCCN)C(=O)N[C@@H](Cc2ccc(O)cc2)C(=O)N[C@H](C(=O)N[C@@H](Cc2ccccc2)C(N)=O)C(C)C)NC(=O)[C@H](Cc2c[nH]c4ccccc24)NC(=O)[C@H](CCCCN)NC(=O)[C@H](Cc2cnc[nH]2)NC(=O)[C@H]([C@@H](C)O)NC(=O)[C@H](CCCNC(=N)N)NC(=O)[C@H](CO)NC3=O)NC(=O)[C@H](CCCCN)NC(=O)[C@H](CC(=O)O)NC(=O)[C@H](CC(N)=O)NC(=O)[C@H](CC(=O)O)NC(=O)[C@H](C)NC1=O (H-DCLGFMRKCIADNDKCCRPNLVCSRTHKWCKYVF-NH2; disulfide 2-17, 9-23, 16-30)",170,> 5000
"CC[C@H](C)[C@@H]1NC(=O)[C@@H]2CSSC[C@@H]3NC(=O)[C@H](C(C)C)NC(=O)[C@H](CC(C)C)NC(=O)[C@H](CC(N)=O)NC(=O)[C@@H]4CCCN4C(=O)[C@H](CCCNC(=N)N)NC(=O)[C@H](CSSC[C@H](NC(=O)[C@@H](N)CC(=O)O)C(=O)N[C@@H](CC(C)C)C(=O)NCC(=O)N[C@@H](Cc4ccccc4)C(=O)N[C@@H](C)C(=O)N[C@@H](CCCNC(=N)N)C(=O)N[C@@H](CCCCN)C(=O)N2)NC(=O)[C@H](CSSC[C@@H](C(=O)N[C@@H](CCCCN)C(=O)N[C@@H](Cc2ccc(O)cc2)C(=O)N[C@H](C(=O)N[C@@H](Cc2ccccc2)C(N)=O)C(C)C)NC(=O)[C@H](Cc2c[nH]c4ccccc24)NC(=O)[C@H](CCCCN)NC(=O)[C@H](Cc2cnc[nH]2)NC(=O)[C@H]([C@@H](C)O)NC(=O)[C@H](CCCNC(=N)N)NC(=O)[C@H](CO)NC3=O)NC(=O)[C@H](CCCCN)NC(=O)[C@H](CC(=O)O)NC(=O)[C@H](CC(N)=O)NC(=O)[C@H](CC(=O)O)NC(=O)[C@@H]2CCCN2C1=O (H-DCLGFARKCIPDNDKCCRPNLVCSRTHKWCKYVF-NH2; disulfide 2-17, 9-23, 16-30)",430,> 5000
"CC[C@H](C)[C@@H]1NC(=O)[C@@H]2CSSC[C@@H]3NC(=O)[C@H](C(C)C)NC(=O)[C@H](CC(C)C)NC(=O)[C@H](CC(N)=O)NC(=O)[C@@H]4CCCN4C(=O)[C@H](CCCNC(=N)N)NC(=O)[C@H](CSSC[C@H](NC(=O)[C@@H](N)CC(=O)O)C(=O)N[C@@H](CC(C)C)C(=O)NCC(=O)N[C@@H](Cc4ccccc4)C(=O)N[C@@H](CCSC)C(=O)N[C@@H](CCCNC(=N)N)C(=O)N[C@@H](CCCCN)C(=O)N2)NC(=O)[C@H](CSSC[C@@H](C(=O)N[C@@H](CCCCN)C(=O)N[C@@H](Cc2ccc(O)cc2)C(=O)N[C@H](C(=O)N[C@@H](Cc2ccccc2)C(N)=O)C(C)C)NC(=O)[C@H](Cc2c[nH]c4ccccc24)NC(=O)[C@H](C)NC(=O)[C@H](Cc2cnc[nH]2)NC(=O)[C@H]([C@@H](C)O)NC(=O)[C@H](CCCNC(=N)N)NC(=O)[C@H](CO)NC3=O)NC(=O)[C@H](CCCCN)NC(=O)[C@H](CC(=O)O)NC(=O)[C@H](CC(N)=O)NC(=O)[C@H](CC(=O)O)NC(=O)[C@@H]2CCCN2C1=O (H-DCLGFMRKCIPDNDKCCRPNLVCSRTHAWCKYVF-NH2; disulfide 2-17, 9-23, 16-30)",470,> 5000
"CC[C@H](C)[C@@H]1NC(=O)[C@@H]2CSSC[C@@H]3NC(=O)[C@H](C(C)C)NC(=O)[C@H](CC(C)C)NC(=O)[C@H](CC(N)=O)NC(=O)[C@@H]4CCCN4C(=O)[C@H](CCCNC(=N)N)NC(=O)[C@H](CSSC[C@H](NC(=O)[C@@H](N)CC(=O)O)C(=O)N[C@@H](CC(C)C)C(=O)NCC(=O)N[C@@H](Cc4ccccc4)C(=O)N[C@@H](CCSC)C(=O)N[C@@H](CCCNC(=N)N)C(=O)N[C@@H](CCCCN)C(=O)N2)NC(=O)[C@H](CSSC[C@@H](C(=O)N[C@@H](CCCCN)C(=O)N[C@@H](Cc2ccc(O)cc2)C(=O)N[C@H](C(=O)N[C@@H](Cc2ccccc2)C(N)=O)C(C)C)NC(=O)[C@H](Cc2c[nH]c4ccccc24)NC(=O)[C@H](CCCCN)NC(=O)[C@H](Cc2cnc[nH]2)NC(=O)[C@H](CCC(=O)O)NC(=O)[C@H](CCCNC(=N)N)NC(=O)[C@H](CO)NC3=O)NC(=O)[C@H](CCCCN)NC(=O)[C@H](CC(=O)O)NC(=O)[C@H](CC(N)=O)NC(=O)[C@H](CC(=O)O)NC(=O)[C@@H]2CCCN2C1=O (H-DCLGFMRKCIPDNDKCCRPNLVCSREHKWCKYVF-NH2; disulfide 2-17, 9-23, 16-30)",34,> 10000
"CC[C@H](C)[C@@H]1NC(=O)[C@@H]2CSSC[C@@H]3NC(=O)[C@H](C(C)C)NC(=O)[C@H](CC(C)C)NC(=O)[C@H](CC(N)=O)NC(=O)[C@@H]4CCCN4C(=O)[C@H](CCCNC(=N)N)NC(=O)[C@H](CSSC[C@H](NC(=O)[C@@H](N)CC(=O)O)C(=O)N[C@@H](CC(C)C)C(=O)NCC(=O)N[C@@H](C)C(=O)N[C@@H](Cc4ccccc4)C(=O)N[C@@H](CCCNC(=N)N)C(=O)N[C@@H](CCCCN)C(=O)N2)NC(=O)[C@H](CSSC[C@@H](C(=O)N[C@@H](CCCCN)C(=O)N[C@@H](Cc2ccc(O)cc2)C(=O)N[C@H](C(=O)N[C@@H](Cc2ccccc2)C(N)=O)C(C)C)NC(=O)[C@H](Cc2c[nH]c4ccccc24)NC(=O)[C@H](CCCNC(=N)N)NC(=O)[C@H](Cc2cnc[nH]2)NC(=O)[C@H](CC(C)C)NC(=O)[C@H](CCCNC(=N)N)NC(=O)[C@H](CO)NC3=O)NC(=O)[C@H](CCCCN)NC(=O)[C@H](CC(=O)O)NC(=O)[C@H](CC(N)=O)NC(=O)[C@H](CC(=O)O)NC(=O)[C@@H]2CCCN2C1=O (H-DCLGAFRKCIPDNDKCCRPNLVCSRLHRWCKYVF-NH2; disulfide 2-17, 9-23, 16-30)",1.6,> 10000
